According to US20050288273A1, “Antibacterial agents” (priority 2003, published 2005):

Structure (SMILES): CC(=S)NC[C@H]1CN(c2ccc3c(c2)CCCc2cnoc2-3)C(=O)O1
- melting point: 185 to 195 °C

Structure (SMILES): CC(=S)NC[C@H]1CN(c2ccc3c(c2)CCCc2cn[nH]c2-3)C(=O)O1
- melting point: 190 to 195 °C

Structure (SMILES): CC(C)(C)OC(=O)NC[C@H]1CN(c2ccc3c(c2)CCCc2cnoc2-3)C(=O)O1
- melting point: 180 to 184 °C

Structure (SMILES): Cl.NC[C@H]1CN(c2ccc3c(c2)CCCc2cnoc2-3)C(=O)O1
- melting point: 245 to 258 °C

Structure (SMILES): Cl.NC[C@H]1CN(c2ccc3c(c2)CCCc2cn[nH]c2-3)C(=O)O1
- melting point: 201 to 223 °C

Structure (SMILES): CCC(=O)NC[C@H]1CN(c2ccc3c(c2)CCCc2cnoc2-3)C(=O)O1
- melting point: 185 to 186 °C

Structure (SMILES): CC(C)C(=O)NC[C@H]1CN(c2ccc3c(c2)CCCc2cnoc2-3)C(=O)O1
- melting point: 187 to 193 °C

Structure (SMILES): O=C(NC[C@H]1CN(c2ccc3c(c2)CCCc2cnoc2-3)C(=O)O1)C1CC1
- melting point: 211 to 215 °C

Structure (SMILES): O=C(CC1CC1)NC[C@H]1CN(c2ccc3c(c2)CCCc2cnoc2-3)C(=O)O1
- melting point: 187 to 191 °C

Structure (SMILES): O=C(CC1CCCC1)NC[C@H]1CN(c2ccc3c(c2)CCCc2cnoc2-3)C(=O)O1
- melting point: 193 to 195 °C

Structure (SMILES): COC(=O)CC(=O)NC[C@H]1CN(c2ccc3c(c2)CCCc2cnoc2-3)C(=O)O1
- melting point: 205 to 217 °C

Structure (SMILES): O=C(NC[C@H]1CN(c2ccc3c(c2)CCCc2cnoc2-3)C(=O)O1)c1ccccc1
- melting point: 240 to 245 °C

Structure (SMILES): O=C(CC(F)(F)F)NC[C@H]1CN(c2ccc3c(c2)CCCc2cnoc2-3)C(=O)O1
- melting point: 150 to 186 °C

Structure (SMILES): O=C(NC[C@H]1CN(c2ccc3c(c2)CCCc2cnoc2-3)C(=O)O1)C(F)F
- melting point: 145 to 180 °C

Structure (SMILES): CC(C)C(=O)NC[C@H]1CN(c2ccc3c(c2)CCCc2cnn(C(=O)C(C)C)c2-3)C(=O)O1
- melting point: 75 to 80 °C

Structure (SMILES): O=C(CC1CCCC1)NC[C@H]1CN(c2ccc3c(c2)CCCc2cnn(C(=O)CC4CCCC4)c2-3)C(=O)O1
- melting point: 165 to 167 °C

Structure (SMILES): O=C(NC[C@H]1CN(c2ccc3c(c2)CCCc2cnn(C(=O)c4ccccc4)c2-3)C(=O)O1)c1ccccc1
- melting point: 75 to 95 °C

Structure (SMILES): O=C(NC[C@H]1CN(c2ccc3c(c2)CCCc2cn[nH]c2-3)C(=O)O1)C(F)F
- melting point: 147 to 150 °C

Structure (SMILES): CCC(=O)NC[C@H]1CN(c2ccc3c(c2)CCCc2cn[nH]c2-3)C(=O)O1
- melting point: 233 to 235 °C

Structure (SMILES): O=C(NC[C@H]1CN(c2ccc3c(c2)CCCc2cn[nH]c2-3)C(=O)O1)C1CC1
- melting point: 224 to 227 °C

Structure (SMILES): O=C(CC1CC1)NC[C@H]1CN(c2ccc3c(c2)CCCc2cn[nH]c2-3)C(=O)O1
- melting point: 212 to 215 °C

Structure (SMILES): O=C(CC1CCCC1)NC[C@H]1CN(c2ccc3c(c2)CCCc2cn[nH]c2-3)C(=O)O1
- melting point: 205 to 208 °C

Structure (SMILES): O=C(NC[C@H]1CN(c2ccc3c(c2)CCCc2cn[nH]c2-3)C(=O)O1)c1ccccc1
- melting point: 105 to 125 °C

Structure (SMILES): O=C(CC(F)(F)F)NC[C@H]1CN(c2ccc3c(c2)CCCc2cn[nH]c2-3)C(=O)O1
- melting point: 243 to 245 °C

Structure (SMILES): COC(=O)NC[C@H]1CN(c2ccc3c(c2)CCCc2cnoc2-3)C(=O)O1
- melting point: 166 to 168 °C

Structure (SMILES): CCOC(=O)NC[C@H]1CN(c2ccc3c(c2)CCCc2cnoc2-3)C(=O)O1
- melting point: 181 to 183 °C

Structure (SMILES): CCNC(=O)NC[C@H]1CN(c2ccc3c(c2)CCCc2cnoc2-3)C(=O)O1
- melting point: 193 to 196 °C

Structure (SMILES): COC(=O)NC[C@H]1CN(c2ccc3c(c2)CCCc2cn[nH]c2-3)C(=O)O1
- melting point: 87 to 93 °C

Structure (SMILES): CCOC(=O)NC[C@H]1CN(c2ccc3c(c2)CCCc2cn[nH]c2-3)C(=O)O1
- melting point: 122 to 126 °C

Structure (SMILES): CN(C)/C=C1/CCCc2cc(N3C[C@H](CNC(=O)OC(C)(C)C)OC3=O)ccc2C1=O (stereo in doubt)
- melting point: 157 to 160 °C

Structure (SMILES): O=C1O[C@@H](CNC(=O)C(F)(F)F)CN1c1ccc2c(c1)CCCc1cnoc1-2 (stereo in doubt)
- melting point: 203 to 205 °C
